In US20250122221A1 (NANJING ZAIMING PHARMACEUTICAL CO., LTD., priority 2022, published 2025):
Where two headings read alike, the source gives them in different places.

Legend:
[1] = molecular target: N-terminal active peptide segment (MI-N899) of POLQ with ATPase activity (Homo sapiens (Human), UniProt O75417); experiment: POLQ enzyme activity inhibition experiment (ATPase, NADH-coupled, OD 340 nm); type: biochemical; details: 100 nM POLQ (N), 100 μM ATP, 300 nM dT50
Method: The Envision microplate reader from Perkin Elmer Inc was used to measure the reduction of OD value of NADH at 340 nm, thus reflecting the enzyme activity. Experimental method: The POLQ enzyme was diluted to 100 nM with a reaction buffer (20 mM Tris HCl (pH 7.80), 80 mM KCl, 10 mM MgCl2, 1 mM DTT, 0.01% w/v bovine serum albumin, 0.01% v/v Tween-20, and 5% v/v glycerol). The compounds to be tested were diluted to different concentrations in dimethyl sulfoxide (DMSO) using the Echo 650 pipetting system, and transferred to a 384-well plate, 20 μL/well of 100 nM POLQ was added, and the mixture was incubated at room temperature for 15 minutes. A reaction mixture solution was formulated, and the concentration of each component in the reaction mixture solution was: 100 μM ATP, 300 nM […], 300 μM NADH, 6 mM PEP, 10 U/mL lactate dehydrogenase and 20 U/mL pyruvate kinase. 20 μL/well of reaction mixture solution was added to start the enzyme reaction. […] The concentration range was from 10 μM to 0.0005 μM, and the final concentration of DMSO in the system was 0.2% v/v. The 384-well plate was reacted at room temperature for 20 minutes, and then the OD value at 340 nm was read with an Envision microplate reader. The inhibition rate was calculated, and XLfit software was used to perform fitting to obtain IC50 of the compounds. In the experiment, a blank group and a DMSO group were set up, respectively.

[2] = tested on: DLD-1 BRCA2 (−/−) cells; experiment: Inhibition of tumour cell proliferation, 7 days, CTG; type: cell-based; details: Homo sapiens, read-out: DLD-1 BRCA2 (−/−) IC50
Method: (§1) Brief introduction to the experimental principle: The compounds were co-incubated with tumour cells for 7 days, and then a CTG kit from Promega Inc was used to quantify ATP in viable cells, thus reflecting the effect of the compounds on tumour cell proliferation.
(§2) Experimental method: DLD-1 parental cells or DLD-1 BRCA2 (−/−) cells were diluted with RPMI 1640 medium containing 10% FBS, and then added to a 96-well plate (90 μL/well), with the number of cells being 600 cells/well or 1200 cells/well, respectively, and cultured overnight in a 37° C., 5% CO2 incubator. The compounds to be tested were diluted to different concentrations in dimethyl sulfoxide (DMSO), and then added to a 96-well plate. The final concentration of the compounds in the reaction system started from 25 μM, and was subjected to 4-fold gradient dilution. The concentration range of the compounds was from 25 μM to 0.0004 μM, and the final concentration of DMSO was 0.25% v/v. After 7 days of incubation, 50 μL/well CTG was added, and the mixture was incubated at room temperature for 10 minutes. Subsequently, the luminescence (Lum) signal value was read with an Envision microplate reader, and the inhibition rate and half inhibitory concentration (IC50) were calculated.
(§3) The inhibition rate was calculated, and XLfit software was used to perform fitting to obtain IC50 of the compounds.
(§4) In the experiment, a blank well and a DMSO well were set up, respectively.
(§5) Inhibition rate=100*(Lummax−Lumcompound)/(Lummax−Lummin)%, • where Lummax refers to the luminescence signal value of the well containing cells and 0.25% v/v DMSO; Lumcompound refers to the luminescence signal value of the well containing the compound and cells; and Lummin refers to the luminescence signal value of the well containing the medium and 0.25% v/v DMSO.

[3] = tested on: DLD-1 parental cells; experiment: as above; type: cell-based; details: Homo sapiens, read-out: DLD-1 parental cell IC50
Method: as §1, §2, §3, §4, §5

[4] = 168 h, DLD-1 BRCA2 (−/−) cells, 7 days of incubation, CTG
[5] = 168 h, DLD-1 parental cells, 7 days of incubation, CTG

Sequence of N-terminal active peptide segment (MI-N899) of POLQ with ATPase activity (O75417 1-899 limits assumed): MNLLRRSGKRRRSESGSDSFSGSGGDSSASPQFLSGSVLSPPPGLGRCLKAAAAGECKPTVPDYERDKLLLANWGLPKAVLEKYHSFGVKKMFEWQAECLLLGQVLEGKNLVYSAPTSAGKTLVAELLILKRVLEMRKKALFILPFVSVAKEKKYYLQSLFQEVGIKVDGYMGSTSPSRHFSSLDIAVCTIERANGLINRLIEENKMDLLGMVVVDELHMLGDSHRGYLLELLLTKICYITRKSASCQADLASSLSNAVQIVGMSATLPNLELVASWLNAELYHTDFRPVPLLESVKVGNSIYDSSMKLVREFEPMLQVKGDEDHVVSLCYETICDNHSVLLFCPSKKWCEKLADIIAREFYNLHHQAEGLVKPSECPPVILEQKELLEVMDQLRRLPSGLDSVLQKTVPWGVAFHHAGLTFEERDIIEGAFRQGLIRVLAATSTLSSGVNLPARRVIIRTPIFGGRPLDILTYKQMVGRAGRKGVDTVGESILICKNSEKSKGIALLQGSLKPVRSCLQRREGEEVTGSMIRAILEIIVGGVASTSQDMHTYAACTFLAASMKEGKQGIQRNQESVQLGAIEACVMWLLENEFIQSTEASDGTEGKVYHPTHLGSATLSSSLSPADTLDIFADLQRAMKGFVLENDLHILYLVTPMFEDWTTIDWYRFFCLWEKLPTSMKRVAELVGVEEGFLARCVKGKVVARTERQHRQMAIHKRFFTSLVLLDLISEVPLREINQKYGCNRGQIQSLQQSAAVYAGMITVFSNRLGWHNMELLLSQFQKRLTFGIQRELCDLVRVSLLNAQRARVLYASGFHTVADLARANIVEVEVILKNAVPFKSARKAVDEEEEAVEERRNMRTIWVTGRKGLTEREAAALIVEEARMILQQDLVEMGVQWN

SMILES | IC50 [1] | IC50 [2, 4] | IC50 [3, 5] | IC50 ([2]; DLD-1, 168 h) | IC50 ([3]; DLD-1, 168 h)
COc1ccccc1-c1cnccc1C(=O)Nc1nc2ncc(-c3ccc(C#N)cc3)nc2s1 [Compound 9, N-(6-(4-cyanophenyl)thiazolo[4,5-b]pyrazin-2-yl)-3-(2-methoxyphenyl)pyridine-4-carboxamide] | < 100 nM | < 200 nM | > 10000 nM |  | 
COc1ccccc1-c1ccncc1C(=O)Nc1nc2ncc(-c3ccc(C#N)cc3)nc2s1 [Compound 16, N-(6-(4-cyanophenyl)thiazolo[4,5-b]pyrazin-2-yl)-4-(2-methoxyphenyl)nicotinamide] | < 100 nM | 200 to 500 nM | > 10000 nM |  | 
COc1cnc(Cl)cc1-c1cc(C)ncc1C(=O)Nc1nc2ncc(-c3ccc(C#N)cc3)nc2s1 [Compound 20, 2′-chloro-N-(6-(4-cyanophenyl)thiazolo[4,5-b]pyrazin-2-yl)-5′-methoxy-6-methyl-[4,4′-bipyridine]-3-carboxamide] | < 100 nM | < 200 nM | > 10000 nM |  | 
COc1cnc(C)cc1-c1cc(C)ncc1C(=O)Nc1nc2ncc(-c3ccc(C#N)cc3)nc2s1 [Compound 21, N-(6-(4-cyanophenyl)thiazolo[4,5-b]pyrazin-2-yl)-5′-methoxy-2′,6-dimethyl-[4,4′-bipyridine]-3-carboxamide] | < 100 nM | < 200 nM | > 10000 nM |  | 
COc1cnc(C)cc1-c1cc(C)ncc1C(=O)Nc1nc2ncc(-c3ccc(C4CC4)cn3)nc2s1 [Compound 24, N-(6-(5-cyclopropylpyridin-2-yl)thiazolo[4,5-b]pyrazin-2-yl)-5′-methoxy-2′,6-dimethyl-[4,4′-bipyridine]-3-carboxamide] | < 100 nM | < 200 nM | > 10000 nM |  | 
COc1cnc(C)cc1-c1cc(C)ncc1C(=O)Nc1nc2ncc(-c3ccc(OC(F)F)cn3)nc2s1 [Compound 25, N-(6-(5-(difluoromethoxy)pyridin-2-yl)thiazolo[4,5-b]pyrazin-2-yl)-5′-methoxy-2′,6-dimethyl-[4,4′-bipyridine]-3-carboxamide] | < 100 nM | < 200 nM | > 10000 nM |  | 
COc1ccc(Cl)cc1-c1cc(C)ncc1C(=O)Nc1nc2ncc(-c3ccc(C#N)cn3)nc2s1 [Compound 26, 4-(5-chloro-2-methoxyphenyl)-N-(6-(5-cyanopyridin-2-yl)thiazolo[4,5-b]pyrazin-2-yl)-6-methylnicotinamide] | < 100 nM | < 200 nM | > 10000 nM |  | 
COc1cnc(C)cc1-c1cc(C)ncc1C(=O)Nc1nc2ncc(-c3ccc(C(F)(F)F)cn3)nc2s1 [Compound 27, 5′-methoxy-2′,6-dimethyl-N-(6-(5-(trifluoromethyl)pyridin-2-yl)thiazolo[4,5-b]pyrazin-2-yl)-[4,4′-bipyridine]-3-carboxamide] | < 100 nM | < 200 nM | > 10000 nM |  | 
C#Cc1ccccc1-c1cnccc1C(=O)Nc1nc2ncc(-c3ccc(C#N)cc3)nc2s1 [Compound 30, N-(6-(4-cyanophenyl)thiazolo[4,5-b]pyrazin-2-yl)-3-(2-ethynylphenyl)pyridine-4-carboxamide] | < 100 nM |  |  | < 200 nM | > 10000 nM
COc1ccccc1-n1cncc1C(=O)Nc1nc2ncc(-c3ccc(C#N)cc3)nc2s1 [Compound 32, N-(6-(4-cyanophenyl)thiazolo[4,5-b]pyrazin-2-yl)-1-(2-methoxyphenyl)-1H-imidazole-5-carboxamide] | < 100 nM | 200 to 500 nM | > 10000 nM |  | 
COc1ccc(C#N)cc1-c1cc(C#N)ncc1C(=O)Nc1nc2ncc(-c3ccc(C#N)cc3)nc2s1 [Compound 33, 6-cyano-4-(5-cyano-2-methoxyphenyl)-N-(6-(4-cyanophenyl)thiazolo[4,5-b]pyrazin-2-yl)pyridine-3-carboxamide] | < 100 nM | < 200 nM | > 10000 nM |  | 
COc1cccc(F)c1-c1cnccc1C(=O)Nc1nc2ncc(-c3ccc(C#N)cc3)nc2s1 [Compound 34, N-(6-(4-cyanophenyl)thiazolo[4,5-b]pyrazin-2-yl)-3-(2-fluoro-6-methoxyphenyl)pyridine-4-carboxamide] | < 100 nM | < 200 nM | > 10000 nM |  | 
C#Cc1ccccc1-c1cc(C)ncc1C(=O)Nc1nc2ncc(-c3ccc(C#N)cc3)nc2s1 [Compound 42, N-(6-(4-cyanophenyl)thiazolo[4,5-b]pyrazin-2-yl)-4-(2-ethynylphenyl)-6-methylpyridine-3-carboxamide] | < 100 nM | 200 to 500 nM | > 10000 nM |  | 
COc1ccc(C#N)cc1-c1cc(C)ncc1C(=O)Nc1nc2ncc(-c3ccc(Cl)cc3)nc2s1 [Compound 46, N-(6-(4-chlorophenyl)thiazolo[4,5-b]pyrazin-2-yl)-4-(5-cyano-2-methoxyphenyl)-6-methylpyridine-3-carboxamide] | < 100 nM | < 200 nM | > 10000 nM |  | 
C#Cc1ccc(F)cc1-c1cc(C)ncc1C(=O)Nc1nc2ncc(-c3ccc(C#N)cc3)nc2s1 [Compound 48, N-(6-(4-cyanophenyl)thiazolo[4,5-b]pyrazin-2-yl)-4-(2-ethynyl-5-fluorophenyl)-6-methylpyridine-3-carboxamide] | < 100 nM | 200 to 500 nM | > 10000 nM |  | 
COc1ccc(C#N)cc1-c1cc(C)ncc1C(=O)Nc1nc2ncc(-c3ccc(C#N)cc3)nc2s1 [Compound 58, 4-(5-cyano-2-methoxyphenyl)-N-(6-(4-cyanophenyl)thiazolo [4,5-b]pyrazin-2-yl)-6-methylpyridine-3-carboxamide] | < 100 nM | < 200 nM | > 10000 nM |  | 
COc1cnc(Cl)cc1-c1cc(C)ncc1C(=O)Nc1nc2ncc(-c3ccc(C#N)cn3)nc2s1 [Compound 61, N-(6-(5-cyanopyridin-2-yl)thiazolo[4,5-b]pyrazin-2-yl)-2′-chloro-5′-methoxy-6-methyl-[4,4-bipyridine]-3-carboxamide] | < 100 nM | < 200 nM | > 10000 nM |  | 
COc1ccc(C#N)cc1-c1cc(C)ncc1C(=O)Nc1nc2ncc(-c3ccc(Cl)cn3)nc2s1 [Compound 62, N-(6-(5-chloropyridin-2-yl)thiazolo[4,5-b]pyrazin-2-yl)-4-(5-cyano-2-methoxyphenyl)-6-methylpyridine-3-carboxamide] | < 100 nM | < 200 nM | > 10000 nM |  | 
COc1cnc(C#N)cc1-c1cc(C)ncc1C(=O)Nc1nc2ncc(-c3ccc(Cl)cc3)nc2s1 [Compound 63, N-(6-(4-chlorophenyl)thiazolo[4,5-b]pyrazin-2-yl)-2′-cyano-5′-methoxy-6-methyl-[4,4′-bipyridine]-3-carboxamide] | < 100 nM | 200 to 500 nM | > 10000 nM |  | 
COc1cnc(C)cc1-c1cc(C)ncc1C(=O)Nc1nc2ncc(-c3ccc(C(C)(C)C#N)cn3)nc2s1 [Compound 68, N-[6-[5-(1-cyano-1-methyl-ethyl)pyridin-2-yl]thiazolo[4,5-b]pyrazin-2-yl]-4-(5-methoxy-2-methylpyridine-4-yl)-6-methyl-pyridine-3-carboxamide] | < 100 nM | < 200 nM | > 10000 nM |  | 
COc1cnc(C2CC2)cc1-c1cc(C)ncc1C(=O)Nc1nc2ncc(-c3ccc(C#N)cc3)nc2s1 [Compound 72, N-(6-(4-cyanophenyl)thiazolo[4,5-b]pyrazin-2-yl)-2′-cyclopropyl-5′-methoxy-6-methyl-[4,4′-bipyridine]-3-carboxamide] | < 100 nM | < 200 nM | > 10000 nM |  | 
